# Values quoted from earlier work in patent publication US8476254B2, “Methods for treating psychosis associated with interferson-α therapy” (Corcept Therapeutics, Inc., priority 2002, dated 2013).
# Conditions: % of the daily dose; in one study (Kawai)
compound,measurement,value
"CC#C[C@]1(O)CC[C@H]2[C@@H]3CCC4=CC(=O)CCC4=C3[C@@H](c3ccc(N(C)C)cc3)C[C@@]21C [Mifepristone, 17-beta-hydroxy-11-beta-(4-dimethyl-aminophenyl)-17-alpha-(1-propynyl)-estra-4,9-dien-3-one]",fraction of the daily dose excreted in the urine,less than 0.5%
